From patent US7145013B2, “3-thia-4-arylquinolin-2-one derivatives” (Bristol-Myers Squibb Company, priority 2003, dated 2006)

Legend:
[1] = tested on: cloned mammalian (mSlo or hSlo) BK channel expressed in Xenopus oocytes; assay: Assay for BK channel openers: two-electrode voltage clamp, BK-mediated outward current in Xenopus oocytes; assay type: cell-based; conditions: percent increase over BK current in controls, voltage step to +140 mV, IBTX-sensitive current
Method: The ability of the compounds of the invention to open BK channels and increase whole-cell outward (K^+) BK-mediated currents was assessed under voltage-clamp conditions by determining their ability to increase cloned mammalian (mSlo or hSlo) BK-mediated outward current heterologously expressed in Xenopus oocytes [Butler, A., et al., Science 1993, 261, 221–224; Dworetzky, S. I., et al., Mol. Brain Res. 1994, 27, 189–193; Gribkoff, V. K., et al., Mol. Pharmacol. 1996, 50, 206–217]. The two BK constructs employed represent nearly structurally identical homologous proteins, and have proven to be pharmacologically indistinguishable in our tests. To isolate BK current from native (background, non-BK) current, the specific and potent BK channel-blocking toxin iberiotoxin (IBTX) [Galvez, A., et al., J. Biol. Chem. 1990, 265, 11083–11090] was employed at a supramaximal concentration, e.g., 50–100 nanomolar (“nM”). The relative contribution of BK channel-mediated current to total outward current was determined by subtraction of the current remaining in the presence of IBTX (non-BK current) from the current profiles obtained in all other experimental conditions (control, drug, and wash) [Gribkoff, V. K. et al., Mol. Pharmacol. 1996, 50, 206–217]. […] All compounds were tested in 5–10 oocytes and are reported at the indicated concentration of 20 micromolar (“μM”) (or as otherwise indicated); the effect of the selected compounds of the invention on BK current was expressed as the percent of control IBTX-sensitive current at a single transmembrane voltage (+140 mV) and is listed in Table 1. Recordings were accomplished using standard two-electrode voltage clamp techniques [Stuhmer, W., et al., Methods in Enzymology, 1992, 207, 319–339]; voltage-clamp protocols consisted of 500–750 milliseconds (“ms”) duration step depolarizations, from a holding potential of −60 mV, to a final voltage up to +140 mV in 20 mV steps. The experimental media (modified Barth's solution) consisted of millimolar (“mM”): NaCl (88), NaHCO3 (2.4), KCl (1.0), HEPES (10), MgSO4 (0.82), Ca(NO3)2 (0.33), CaCl2 (0.41); pH 7.5.

[2] = tested on: rat small intestine (ileum) segments; assay: Rat small intestine (ileum) strip relaxation; conditions: integral of nifedipine-sensitive force, pre- vs 30 min post-compound
Description: The ability of the compounds of the invention to relax rat small intestine tissue as a model for the treatment of irritable bowel syndrome is described as follows. Male rats (Harlan, Sprague Dawley, 250–350 g) were sacrificed by decapitation. A portion of small intestine (ileum) was removed and the attached connective tissues and intestinal contents removed. The ileum was cut into segments of ≦1 cm in length. The segments were mounted longitudinally between fixed hooks in organ baths containing warm (37° C.) physiological salt solution (composition in mM: NaCl 118.4, KCl 4.7, KH2PO4 1.2, MgSO4 1.2, CaCl2 1.8, Glucose 10.1, NaHCO3 25; gassed with 95% O2/5% CO2, pH 7.4). A stable tension of ˜1.5 g was maintained in the tissue segments during the equilibration period of 45 minutes. Changes in muscle tension were measured with isometric force transducers (Grass, FT-03C) and recorded using AcqKnowledge data acquisition system (AcqKnowledge for MP100WS, Biopac Systems Inc., Goleta, Calif.). Compound or vehicle was added in the baths for 30 minutes. […] The effects of compounds or vehicle on force was determined by measuring the integral of nifedipine-sensitive force (including resting tone and spontaneous contractions) pre- and 30 min post-compound (or vehicle) addition. Results are expressed as the percentage inhibition of force. […]

Compound	% MaxiK opening ([1]; at 20 μM)	% Inhibition of force (RSI strips) [2]	% MaxiK opening ([1]; at 1 μM)
COc1ccc(Cl)cc1-c1c(Sc2ccc(NS(=O)(=O)C(F)(F)F)cc2)c(=O)[nH]c2ccc(C(F)(F)F)cc12 [Example 4, N-[4-[[4-(5-chloro-2-methoxyphenyl)-1,2-dihydro-2-oxo-6-(trifluoromethyl)-3-quinolinyl]thio]phenyl]-1,1,1-trifluoromethanesulfonamide]	235%		
CCS(=O)(=O)Nc1ccc(Sc2c(-c3cc(Cl)ccc3O)c3cc(C(F)(F)F)ccc3[nH]c2=O)cc1 [Example 3, N-[4-[[4-(5-Chloro-2-hydroxyphenyl)-1,2-dihydro-2-oxo-6-(trifluoromethyl)-3-quinolinyl]thio]phenyl]ethanesulfonamide]	296%		
Cn1c(=O)c(Sc2ccc(N)cc2)c(-c2cc(Cl)ccc2O)c2cc(C(F)(F)F)ccc21 [Example 2, 3-[(4-Aminophenyl)thio]-4-(5-chloro-2-hydroxyphenyl)-1-methyl-6-(trifluoromethyl)-2(1H)-quinolinone]	144%		
O=c1[nH]c2ccc(C(F)(F)F)cc2c(-c2cc(Cl)ccc2O)c1Sc1ccc(NS(=O)(=O)C(F)(F)F)cc1 [Example 7, N-[4-[[4-(5-chloro-2-hydroxyphenyl)-1,2-dihydro-2-oxo-6-(trifluoromethyl)-3-quinolinyl]thio]phenyl]-1,1,1-trifluoromethanesulfonamide]	277%	51%	
CCCS(=O)(=O)Nc1ccc(Sc2c(-c3cc(Cl)ccc3O)c3cc(C(F)(F)F)ccc3[nH]c2=O)cc1 [Example 5, N-[4-[[4-(5-chloro-2-hydroxyphenyl)-1,2-dihydro-2-oxo-6-(trifluoromethyl)-3-quinolinyl]thio]phenyl]-1-propanesulfonamide]	255%		
CN(C)S(=O)(=O)Nc1ccc(Sc2c(-c3cc(Cl)ccc3O)c3cc(C(F)(F)F)ccc3[nH]c2=O)cc1 [Example 6, N′-[4-[[4-(5-chloro-2-hydroxyphenyl)-1,2-dihydro-2-oxo-6-(trifluoromethyl)-3-quinolinyl]thio]phenyl]-N,N-dimethylsulfamide]			222^⋄ %
O=c1[nH]c2ccc(C(F)(F)F)cc2c(-c2cc(Cl)ccc2O)c1Sc1ccc(NS(=O)(=O)CC(F)(F)F)cc1 [Example 8, N-[4-[[4-(5-chloro-2-hydroxyphenyl)-1,2-dihydro-2-oxo-6-(trifluoromethyl)-3-quinolinyl]thio]phenyl]-2,2,2-trifluoroethanesulfonamide]	170%		
Nc1ccc(Sc2c(-c3cc(Cl)ccc3O)c3cc(C(F)(F)F)ccc3[nH]c2=O)cc1 [Example 1, 3-[(4-Aminophenyl)thio]-4-(5-chloro-2-hydroxyphenyl)-6-(trifluoromethyl)-2(1H)-quinolinone]	392%	10%	
CN(C)S(=O)(=O)Nc1ccc(Sc2c(-c3cc(Cl)ccc3O)c3cc(C(F)(F)F)ccc3n(C)c2=O)cc1 [Example 9, N′-[4-[[4-(5-chloro-2-hydroxyphenyl)-1,2-dihydro-1-methyl-2-oxo-6-(trifluoromethyl)-3-quinolinyl]thio]phenyl]-N,N-dimethylsulfamide]			114^⋄ %
